The target of one assay is T1, Neutrophil elastase (Homo sapiens, UniProt P08246).
T1 sequence (P08246 whole entry): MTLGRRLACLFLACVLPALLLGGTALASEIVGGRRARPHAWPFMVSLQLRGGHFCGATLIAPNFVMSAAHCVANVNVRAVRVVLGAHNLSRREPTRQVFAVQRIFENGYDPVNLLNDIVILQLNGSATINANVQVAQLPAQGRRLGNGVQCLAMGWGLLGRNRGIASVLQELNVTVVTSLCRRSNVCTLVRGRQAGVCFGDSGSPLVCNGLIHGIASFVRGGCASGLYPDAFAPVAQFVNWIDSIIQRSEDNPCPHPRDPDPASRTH
Put plainly: The compound was tested for its potency to inhibit human neutrophil elastase activity.

The next assay concerns the target T2, Cathepsin G (Homo sapiens, UniProt P08311).
T2 sequence (P08311 whole entry): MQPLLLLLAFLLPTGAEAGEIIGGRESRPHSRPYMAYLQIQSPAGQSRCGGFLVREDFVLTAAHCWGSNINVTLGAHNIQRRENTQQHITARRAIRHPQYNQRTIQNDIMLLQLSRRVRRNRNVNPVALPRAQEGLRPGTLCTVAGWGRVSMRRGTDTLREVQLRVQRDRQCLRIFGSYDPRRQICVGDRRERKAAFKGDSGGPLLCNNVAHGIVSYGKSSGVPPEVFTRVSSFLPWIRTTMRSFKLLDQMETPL
Put plainly: The compound was tested for its potency to inhibit human Cathepsin G.

The target in the next assay is Chymotrypsinogen A (Bos taurus, UniProt P00766). The experiment in a line: The compound was tested for its potency to inhibit alpha-Chymotrypsin.

Square brackets hold non-standard residues; d marks the D form. Peptide text beside a SMILES is read from it. * marks the point of attachment. ξ: configuration not given here. ξF = NC(Cc1ccccc1)C(=O)O; Boc = CC(C)(C)OC(=O)*; CF3 = FC(F)(F)*

The Ki is the equilibrium dissociation constant of an inhibitor or competing ligand from its target. A high value points to weaker binding. For `CC(C)C(NC(=O)[C@@H]1CCCN1C(=O)[C@@H](NC(=O)OC(C)(C)C)C(C)C)C(=O)C(F)(F)C(F)(F)F` (some centres not stated), on Neutrophil elastase, the inhibition constant Ki is 0.055 µM. This counts as double-digit nanomolar.

As to `CC(C)C(NC(=O)[C@@H]1CCCN1C(=O)[C@@H](NC(=O)c1ccc(C(=O)N[C@@H](C(=O)N2CCC[C@@H]2C(=O)NC(Cc2ccccc2)C(=O)C(F)(F)F)C(C)C)cc1)C(C)C)C(=O)C(F)(F)C(F)(F)F` (some centres not stated), the inhibition constant Ki stood at 2.2 µM at Cathepsin G and 0.0159 µM at Neutrophil elastase. For the molecule `CC(C)[C@H](NC(=O)OC(C)(C)C)C(=O)N1CCC[C@H]1C(=O)NC(Cc1ccccc1)C(=O)C(F)(F)F` (stereo partly drawn) (Boc-Val-Pro-[ξF]-CF3), at Cathepsin G, affinity was put at a Ki of 1.7 µM. Take `CC(C)C(NC(=O)[C@@H]1CCCN1C(=O)[C@@H](NC(=O)c1ccc(C(=O)NC(Cc2ccccc2)C(=O)C(F)(F)F)cc1)C(C)C)C(=O)C(F)(F)C(F)(F)F` (some centres not stated): the Ki is more than 1000 µM on Cathepsin G, 0.004 µM at Neutrophil elastase and 1.2 µM at Chymotrypsinogen A.

The values above are taken from ChEMBL document CHEMBL1127203, “Janus compounds: dual inhibitors of proteinases” (Bioorg Med Chem Lett, 1993).
